Source: the NIST ThermoML archive (doi:10.1016/j.jct.2015.07.014)

Details: Fluid (supercritical or subcritical phases), Buoyancy - hydrostatic balance with magnetic suspension - one sinker

O=C=O [carbon dioxide]
Details | mass density [kg/m3]
323.2 K, 10968 kPa | 497.981
323.24 K, 14966 kPa | 698.2
323.24 K, 18962 kPa | 770.445
323.24 K, 24961 kPa | 833.514
323.25 K, 12967 kPa | 633.58
323.25 K, 16965 kPa | 739.597
323.25 K, 22962 kPa | 815.681
323.25 K, 26959 kPa | 849.181
323.25 K, 28037 kPa | 856.967
323.26 K, 20966 kPa | 795.018
